Data published in PubChem BioAssay (NCI).
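Following 48 hours of exposure in 96-well plates, responses at five concentrations were used to interpolate endpoints linearly. At the GI50, growth is halved. TGI denotes the concentration required for complete inhibition of growth.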

tested on: UACC-62 melanoma; experiment: NCI tumour cell line growth inhibition, 48 h

Question: With COc1ccc(C)cc1C1CCC(=O)O1 (centres undefined) as the molecule, how does the TGI read?
Answer: Its TGI is over 100 µM.

Question: For Cc1ccc2nc(NC(=O)C(=O)CC(=O)c3cccc4ccccc34)sc2c1, which TGI is on record?
Answer: Its TGI is 86.8 µM.

Question: For CCCCCCCCCCCCCCCCCC(=O)NCC(COP(=O)(O)O)OCC (centres undefined), which TGI is on record?
Answer: Its TGI is over 100 µM.

Question: Which TGI does the source give for Cn1nc(-c2ccccc2)c(C(=O)/C=C/c2ccc(Cl)cc2)c(N2CCCC2)c1=O here?
Answer: The TGI was 22.4 µM.

Question: How did the TGI turn out when O=C1C=Cc2ncccc2C1=O was run?
Answer: Its TGI is 31.1 µM.

Question: Which TGI does the source give for C/C(CC(=O)Nc1cccc([N+](=O)[O-])c1)=N\NC(=O)CC#N here?
Answer: The TGI was over 100 µM.

Question: Which results are given for [CH3][Sn]1([CH3])[O]CC(COc2cc(Cl)c(Cl)cc2Cl)[O]1 (centres undefined)?
Answer: GI50: 40.7 µM; TGI: > 100 µM

Question: Cc1cc2nc3c4ccc(Br)cc4n(CCN(C)C)c3nc2cc1C was tested. Which GI50 did it give?
Answer: Its GI50 is 1.82 µM.

Question: What about the TGI of the same molecule?
Answer: The TGI was 3.68 µM.

Question: How did the TGI turn out when CCc1cc(Cc2ccc(C)c(NC(=O)C(=O)C3C(=O)NC(=O)NC3=O)c2CC)cc(C)c1NC(=O)C(=O)C1C(=O)NC(=O)NC1=O was run?
Answer: Its TGI is over 100 µM.

Question: Which TGI does the source give for CC(=O)OC(=O)O/C=C\CCl here?
Answer: The TGI was over 100 µM.

Question: CC(=O)c1c2c(cc3c1CC1(C3)Cc3cc4c(c(C(=O)O)c3C1)CCC4)CCC2 (centres undefined) was tested. Which TGI did it give?
Answer: Its TGI is 78.7 µM.

Question: What does the source list for C/C(=N/O)c1ccc(Nc2cc(-n3ccnc3)c3ccccc3n2)cc1?
Answer: GI50: 27.8 µM; TGI: > 100 µM

Question: Cc1ccc(/C=N/NS(=O)(=O)c2ccccc2)c(C)c1 was tested. Which TGI did it give?
Answer: The TGI was over 100 µM.

Question: NNC(=O)C(O)C(O)C(=O)NN (centres undefined) was tested. Which TGI did it give?
Answer: The TGI was over 100 µM.

Question: For O=C(/C=C/c1cccc2ccccc12)Nc1ncc(Cc2ccccc2)s1, which GI50 is on record?
Answer: The GI50 was 0.437 µM.

Question: And the TGI?
Answer: The TGI was over 100 µM.

Question: C#CCOCn1cnc2ncnc(N)c21 was tested. Which TGI did it give?
Answer: Its TGI is over 100 µM.

Question: How did the TGI turn out when Cc1noc(/N=C2\C=C(Nc3onc(C)c3C)C(=O)c3ccccc32)c1C was run?
Answer: The TGI was over 100 µM.

Question: Which results are given for CCCN1CCC=C(c2ccc(Nc3nc(Nc4ccccc4C(N)=O)c4cc[nH]c4n3)c(C)c2)C1?
Answer: GI50: 14.4 µM; TGI: > 25 µM

tested on: A549 NSCLC; experiment: NCI tumour cell line growth inhibition, 48 h

Question: O=S1(=O)c2ccccc2N=C(c2ccccc2Cl)CC1c1ccc(F)cc1 (centres undefined) was tested. Which TGI did it give?
Answer: The TGI was 47.4 µM.

Question: Which GI50 does the source give for CC(/C=N/N=C(N)N)=N\N=C(N)N here?
Answer: The GI50 was over 52.4 µM.

Question: And the TGI?
Answer: Its TGI is 1780 µM.

Question: O=c1[nH]cc(C(F)(C(F)(F)F)C(F)(F)F)c(=O)[nH]1 was tested. Which TGI did it give?
Answer: Its TGI is over 100 µM.

Question: With COc1ccc2c(c1)c1c3n2CCNN=C3CCC1 as the molecule, how does the TGI read?
Answer: The TGI was over 100 µM.

Question: With CC(C)N1C(C)[C@@H](c2ccccc2)O[P@]1(=O)CC1=CCCCC1 (some centres undefined) as the molecule, how does the TGI read?
Answer: Its TGI is over 100 µM.

Question: Which TGI does the source give for COC(=O)C(=O)C(C(=O)C(=O)Nc1cc(Cl)c(Cl)cc1Cl)c1nc2ccc([N+](=O)[O-])cc2[nH]c1=O (centres undefined) here?
Answer: Its TGI is over 100 µM.

Question: C/C(=N\NS(=O)(=O)c1ccc([N+](=O)[O-])cc1)c1ccc[n+]([O-])n1 was tested. Which TGI did it give?
Answer: Its TGI is over 100 µM.

Question: Which TGI does the source give for S=c1c2ccccc2c(=S)n2n1CC=CC2 here?
Answer: Its TGI is over 100 µM.

Question: How did the TGI turn out when CC(C)(C)Sc1nnc(SC(C)(C)C)c2c(=O)[nH]nc(SC(C)(C)C)c12 was run?
Answer: The TGI was 17.9 µM.

Question: How did the TGI turn out when CCCCNC1=C(C(=O)OCC)/C(=N/NC(=O)c2ccccc2O)CO1 was run?
Answer: Its TGI is over 100 µM.

Question: With N#CC(C(=O)CCCC(=O)Nc1ccc(Cl)cc1Cl)c1ccc(Cl)cc1 (centres undefined) as the molecule, how does the TGI read?
Answer: Its TGI is over 100 µM.

Question: Which TGI does the source give for O=CCCCC(Sc1ccccc1)Sc1ccccc1 here?
Answer: Its TGI is over 100 µM.

Question: COC(=O)/C(=N\Nc1nnc(C)n1N)C(C#N)c1ccccc1 (centres undefined) was tested. Which TGI did it give?
Answer: The TGI was over 100 µM.

Question: COc1ccc(C)cc1C1CCC(=O)O1 (centres undefined) was tested. Which TGI did it give?
Answer: The TGI was over 100 µM.

Question: Which TGI does the source give for Cc1ccc2nc(NC(=O)C(=O)CC(=O)c3cccc4ccccc34)sc2c1 here?
Answer: The TGI was over 100 µM.

Question: With O=C1CCC(=O)c2sccc2N1 as the molecule, how does the TGI read?
Answer: The TGI was over 100 µM.

Question: Which TGI does the source give for CCCCCCCCCCCCCCCCCC(=O)NCC(COP(=O)(O)O)OCC (centres undefined) here?
Answer: Its TGI is over 100 µM.

Question: Cn1nc(-c2ccccc2)c(C(=O)/C=C/c2ccc(Cl)cc2)c(N2CCCC2)c1=O was tested. Which TGI did it give?
Answer: Its TGI is 49.4 µM.

Question: O=C1C=Cc2ncccc2C1=O was tested. Which TGI did it give?
Answer: Its TGI is over 67.6 µM.

Question: With C/C(CC(=O)Nc1cccc([N+](=O)[O-])c1)=N\NC(=O)CC#N as the molecule, how does the TGI read?
Answer: The TGI was over 100 µM.

Question: What does the source list for [CH3][Sn]1([CH3])[O]CC(COc2cc(Cl)c(Cl)cc2Cl)[O]1 (centres undefined)?
Answer: GI50: 83.6 µM; TGI: > 100 µM

Question: Which results are given for Cc1cc2nc3c4ccc(Br)cc4n(CCN(C)C)c3nc2cc1C?
Answer: GI50: 1.16 µM; TGI: 10.3 µM

Question: For CCc1cc(Cc2ccc(C)c(NC(=O)C(=O)C3C(=O)NC(=O)NC3=O)c2CC)cc(C)c1NC(=O)C(=O)C1C(=O)NC(=O)NC1=O, which TGI is on record?
Answer: Its TGI is over 100 µM.

Question: With CC(=O)OC(=O)O/C=C\CCl as the molecule, how does the TGI read?
Answer: The TGI was over 100 µM.

Question: How did the TGI turn out when CC(=O)c1c2c(cc3c1CC1(C3)Cc3cc4c(c(C(=O)O)c3C1)CCC4)CCC2 (centres undefined) was run?
Answer: Its TGI is over 100 µM.

Question: What does the source list for C/C(=N/O)c1ccc(Nc2cc(-n3ccnc3)c3ccccc3n2)cc1?
Answer: GI50: 7.21 µM; TGI: 36.4 µM

Question: How did the TGI turn out when Cc1ccc(/C=N/NS(=O)(=O)c2ccccc2)c(C)c1 was run?
Answer: The TGI was over 100 µM.

Question: Which TGI does the source give for NNC(=O)C(O)C(O)C(=O)NN (centres undefined) here?
Answer: Its TGI is over 100 µM.

Question: With O=C(/C=C/c1cccc2ccccc12)Nc1ncc(Cc2ccccc2)s1 as the molecule, how does the GI50 read?
Answer: Its GI50 is 1.32 µM.

Question: What about the TGI of the same molecule?
Answer: The TGI was over 66.3 µM.

Question: For C#CCOCn1cnc2ncnc(N)c21, which TGI is on record?
Answer: The TGI was over 100 µM.

Question: Cc1noc(/N=C2\C=C(Nc3onc(C)c3C)C(=O)c3ccccc32)c1C was tested. Which TGI did it give?
Answer: The TGI was over 100 µM.

Question: With CCCN1CCC=C(c2ccc(Nc3nc(Nc4ccccc4C(N)=O)c4cc[nH]c4n3)c(C)c2)C1 as the molecule, how does the GI50 read?
Answer: Its GI50 is 1.89 µM.

Question: What about the TGI of the same molecule?
Answer: The TGI was over 25 µM.

tested on: SNB-78 CNS; experiment: NCI tumour cell line growth inhibition, 48 h

Question: How did the TGI turn out when O=S1(=O)c2ccccc2N=C(c2ccccc2Cl)CC1c1ccc(F)cc1 (centres undefined) was run?
Answer: The TGI was 40.3 µM.

Question: Which TGI does the source give for CC(/C=N/N=C(N)N)=N\N=C(N)N here?
Answer: The TGI was 147 µM.

Question: For CC1=CC(=O)NP(=O)(C23CC4CC(CC(C4)C2)C3)N1 (centres undefined), which TGI is on record?
Answer: Its TGI is over 100 µM.

Question: How did the TGI turn out when O=c1[nH]cc(C(F)(C(F)(F)F)C(F)(F)F)c(=O)[nH]1 was run?
Answer: Its TGI is over 100 µM.

Question: With COc1ccc2c(c1)c1c3n2CCNN=C3CCC1 as the molecule, how does the TGI read?
Answer: The TGI was over 94.3 µM.

Question: For COC(=O)C(=O)C(C(=O)C(=O)Nc1cc(Cl)c(Cl)cc1Cl)c1nc2ccc([N+](=O)[O-])cc2[nH]c1=O (centres undefined), which TGI is on record?
Answer: Its TGI is over 100 µM.

Question: COc1ccc(NC(=O)C2C(=O)N(c3ccc(OC)cc3)C(=O)/C2=N\NC(N)=O)cc1 (centres undefined) was tested. Which TGI did it give?
Answer: Its TGI is over 100 µM.

Question: With C/C(=N\NS(=O)(=O)c1ccc([N+](=O)[O-])cc1)c1ccc[n+]([O-])n1 as the molecule, how does the TGI read?
Answer: The TGI was 51.8 µM.

Question: S=c1c2ccccc2c(=S)n2n1CC=CC2 was tested. Which TGI did it give?
Answer: The TGI was over 100 µM.

Question: Which TGI does the source give for CC(C)(C)Sc1nnc(SC(C)(C)C)c2c(=O)[nH]nc(SC(C)(C)C)c12 here?
Answer: Its TGI is 25.8 µM.

Question: CCCCNC1=C(C(=O)OCC)/C(=N/NC(=O)c2ccccc2O)CO1 was tested. Which TGI did it give?
Answer: Its TGI is over 100 µM.

Question: N#CC(C(=O)CCCC(=O)Nc1ccc(Cl)cc1Cl)c1ccc(Cl)cc1 (centres undefined) was tested. Which TGI did it give?
Answer: Its TGI is over 100 µM.

Question: With O=CCCCC(Sc1ccccc1)Sc1ccccc1 as the molecule, how does the TGI read?
Answer: Its TGI is 37.7 µM.

Question: Which TGI does the source give for COC(=O)/C(=N\Nc1nnc(C)n1N)C(C#N)c1ccccc1 (centres undefined) here?
Answer: Its TGI is over 100 µM.

Question: With COc1ccc(C)cc1C1CCC(=O)O1 (centres undefined) as the molecule, how does the TGI read?
Answer: Its TGI is over 100 µM.

Question: For Cc1ccc2nc(NC(=O)C(=O)CC(=O)c3cccc4ccccc34)sc2c1, which TGI is on record?
Answer: The TGI was over 100 µM.

Question: How did the TGI turn out when O=C1CCC(=O)c2sccc2N1 was run?
Answer: Its TGI is over 100 µM.

Question: Which TGI does the source give for CCCCCCCCCCCCCCCCCC(=O)NCC(COP(=O)(O)O)OCC (centres undefined) here?
Answer: The TGI was 83.3 µM.

Question: With O=C1C=Cc2ncccc2C1=O as the molecule, how does the TGI read?
Answer: The TGI was over 66.5 µM.

Question: With C/C(CC(=O)Nc1cccc([N+](=O)[O-])c1)=N\NC(=O)CC#N as the molecule, how does the TGI read?
Answer: The TGI was over 100 µM.

Question: [CH3][Sn]1([CH3])[O]CC(COc2cc(Cl)c(Cl)cc2Cl)[O]1 (centres undefined) was tested. Which GI50 did it give?
Answer: The GI50 was 49.6 µM.

Question: And the TGI?
Answer: Its TGI is over 100 µM.

Question: With CCc1cc(Cc2ccc(C)c(NC(=O)C(=O)C3C(=O)NC(=O)NC3=O)c2CC)cc(C)c1NC(=O)C(=O)C1C(=O)NC(=O)NC1=O as the molecule, how does the TGI read?
Answer: The TGI was over 100 µM.

Question: CC(=O)OC(=O)O/C=C\CCl was tested. Which TGI did it give?
Answer: The TGI was over 100 µM.

Question: How did the TGI turn out when CC(=O)c1c2c(cc3c1CC1(C3)Cc3cc4c(c(C(=O)O)c3C1)CCC4)CCC2 (centres undefined) was run?
Answer: The TGI was over 100 µM.

Question: Cc1ccc(/C=N/NS(=O)(=O)c2ccccc2)c(C)c1 was tested. Which TGI did it give?
Answer: Its TGI is over 100 µM.

Question: C#CCOCn1cnc2ncnc(N)c21 was tested. Which TGI did it give?
Answer: The TGI was over 100 µM.

Question: Cc1noc(/N=C2\C=C(Nc3onc(C)c3C)C(=O)c3ccccc32)c1C was tested. Which TGI did it give?
Answer: The TGI was over 100 µM.
